Reference: ChEMBL document CHEMBL3046001, “4-Thiazolidinone and 1-thia-3,4,9-triaza fluorene conjugates: synthesis, characterization and antimicrobial screening” (2013)
≈ marks a conversion by molar mass, not a printed value. Calls of active or inactive are those of the source. The rule behind the calls is not given here.

Columns and labels:
Pseudomonas aeruginosa [1] = assay: Antibacterial activity against Pseudomonas aeruginosa MTCC 424 assessed as growth inhibition at 750 ug/mL after 48 hr by agar diffusion method; assay type: functional; conditions: MTCC 424, 48 h, read-out: DIZ
Bacillus pumilus [2] = assay: Antibacterial activity against Bacillus pumilus MTCC 1456 assessed as growth inhibition at 1000 ug/mL after 48 hr by agar diffusion method; assay type: functional; conditions: MTCC 1456, 48 h, read-out: DIZ
Pseudomonas aeruginosa [3] = assay: Antibacterial activity against Pseudomonas aeruginosa MTCC 424 assessed as growth inhibition at 1000 ug/mL after 48 hr by agar diffusion method; assay type: functional; conditions: MTCC 424, 48 h, read-out: DIZ
Aspergillus niger [4] = assay: Antifungal activity against Aspergillus niger MTCC 2546 assessed as growth inhibition after 24 hr by tube dilution method; assay type: functional; conditions: MTCC 2546, 24 h
Aspergillus niger [5] = assay: Antifungal activity against Aspergillus niger MTCC 2546 assessed as growth inhibition at 500 ug/mL after 48 hr by agar diffusion method; assay type: functional; conditions: MTCC 2546, 48 h, read-out: DIZ
Pseudomonas fluorescens [6] = assay: Antibacterial activity against Pseudomonas fluorescens MTCC 2421 assessed as growth inhibition at 250 ug/mL after 48 hr by agar diffusion method; assay type: functional; conditions: MTCC 2421, 48 h, read-out: DIZ
Staphylococcus aureus [7] = assay: Antibacterial activity against Staphylococcus aureus MTCC 1430 assessed as growth inhibition at 250 ug/mL after 48 hr by agar diffusion method; assay type: functional; conditions: for zone of inhibition at 250 µg/mL: MTCC 1430, 48 h, read-out: DIZ
Pseudomonas aeruginosa [8] = assay: Antibacterial activity against Pseudomonas aeruginosa MTCC 424 assessed as growth inhibition after 24 hr by tube dilution method; assay type: functional; conditions: MTCC 424, 24 h
Micrococcus luteus = assay: Antibacterial activity against Micrococcus luteus MTCC 1538 assessed as growth inhibition after 24 hr by tube dilution method; assay type: functional; conditions: MTCC 1538, 24 h
Escherichia coli [9] = assay: Antibacterial activity against Escherichia coli MTCC 1573 assessed as growth inhibition at 500 ug/mL after 48 hr by agar diffusion method; assay type: functional; conditions: MTCC 1573, 48 h, read-out: DIZ
Pseudomonas fluorescens [10] = assay: Antibacterial activity against Pseudomonas fluorescens MTCC 2421 assessed as growth inhibition at 100 ug/mL after 48 hr by agar diffusion method; assay type: functional; conditions: MTCC 2421, 48 h, read-out: DIZ
Aspergillus niger [11] = assay: Antifungal activity against Aspergillus niger MTCC 2546 assessed as growth inhibition at 750 ug/mL after 48 hr by agar diffusion method; assay type: functional; conditions: MTCC 2546, 48 h, read-out: DIZ
Staphylococcus aureus [12] = assay: Antibacterial activity against Staphylococcus aureus MTCC 1430 assessed as growth inhibition after 24 hr by tube dilution method; assay type: functional; conditions: MTCC 1430, 24 h
Bacillus pumilus [13] = assay: Antibacterial activity against Bacillus pumilus MTCC 1456 assessed as growth inhibition at 100 ug/mL after 48 hr by agar diffusion method; assay type: functional; conditions: MTCC 1456, 48 h, read-out: DIZ
Bacillus subtilis [14] = assay: Antibacterial activity against Bacillus subtilis MTCC 441 assessed as growth inhibition at 100 ug/mL after 48 hr by agar diffusion method; assay type: functional; conditions: MTCC 441, 48 h, read-out: DIZ
Aspergillus niger [15] = assay: Antifungal activity against Aspergillus niger MTCC 2546 assessed as growth inhibition at 100 ug/mL after 48 hr by agar diffusion method; assay type: functional, organism-based
Staphylococcus aureus [16] = assay: Antibacterial activity against Staphylococcus aureus MTCC 1430 assessed as growth inhibition at 1250 ug/mL after 48 hr by agar diffusion method; assay type: functional; conditions: MTCC 1430, 48 h, read-out: DIZ
Pseudomonas aeruginosa [17] = assay: Antibacterial activity against Pseudomonas aeruginosa MTCC 424 assessed as growth inhibition at 1250 ug/mL after 48 hr by agar diffusion method; assay type: functional; conditions: MTCC 424, 48 h, read-out: DIZ
Bacillus subtilis [18] = assay: Antibacterial activity against Bacillus subtilis MTCC 441 assessed as growth inhibition at 250 ug/mL after 48 hr by agar diffusion method; assay type: functional; conditions: MTCC 441, 48 h, read-out: DIZ
Penicillium chrysogenum = assay: Antifungal activity against Penicillium chrysogenum MTCC 161 assessed as growth inhibition at 1250 ug/mL after 48 hr by agar diffusion method; assay type: functional; conditions: MTCC 161, 48 h, read-out: DIZ
Escherichia coli [19] = assay: Antibacterial activity against Escherichia coli MTCC 1573 assessed as growth inhibition at 1000 ug/mL after 48 hr by agar diffusion method; assay type: functional; conditions: MTCC 1573, 48 h, read-out: DIZ
Bacillus pumilus [20] = assay: Antibacterial activity against Bacillus pumilus MTCC 1456 assessed as growth inhibition at 750 ug/mL after 48 hr by agar diffusion method; assay type: functional; conditions: MTCC 1456, 48 h, read-out: DIZ
Escherichia coli [21] = assay: Antibacterial activity against Escherichia coli MTCC 1573 assessed as growth inhibition at 750 ug/mL after 48 hr by agar diffusion method; assay type: functional; conditions: MTCC 1573, 48 h, read-out: DIZ
Escherichia coli [22] = assay: Antibacterial activity against Escherichia coli MTCC 1573 assessed as growth inhibition at 1250 ug/mL after 48 hr by agar diffusion method; assay type: functional; conditions: MTCC 1573, 48 h, read-out: DIZ

| Compound | zone of inhibition at 750 µg/mL (Pseudomonas aeruginosa [1]) [mm] | zone of inhibition at 1000 µg/mL (Bacillus pumilus [2]) [mm] | zone of inhibition at 1000 µg/mL (Pseudomonas aeruginosa [3]) [mm] | MIC (Aspergillus niger [4]) [µg/mL] | zone of inhibition at 500 µg/mL (Aspergillus niger [5]) [mm] | zone of inhibition at 250 µg/mL (Pseudomonas fluorescens [6]) [mm] | MIC (Pseudomonas aeruginosa [8]) [µg/mL] | MIC (Micrococcus luteus) [µg/mL] | zone of inhibition at 500 µg/mL (Escherichia coli [9]) [mm] | zone of inhibition at 100 µg/mL (Pseudomonas fluorescens [10]) [mm] | zone of inhibition at 750 µg/mL (Aspergillus niger [11]) [mm] | MIC (Staphylococcus aureus [12]) [µg/mL] | zone of inhibition at 100 µg/mL (Bacillus pumilus [13]) [mm] | zone of inhibition at 100 µg/mL (Bacillus subtilis [14]) [mm] | growth inhibition (GI) (Aspergillus niger [15]) | zone of inhibition at 1250 µg/mL (Staphylococcus aureus [16]) [mm] | zone of inhibition at 1250 µg/mL (Pseudomonas aeruginosa [17]) [mm] | zone of inhibition at 250 µg/mL (Bacillus subtilis [18]) [mm] | zone of inhibition at 1250 µg/mL (Penicillium chrysogenum) [mm] | zone of inhibition at 1000 µg/mL (Escherichia coli [19]) [mm] | other results |
| --- | --- | --- | --- | --- | --- | --- | --- | --- | --- | --- | --- | --- | --- | --- | --- | --- | --- | --- | --- | --- | --- |
| CC1SCC(=O)N1c1nnc2c3ccccc3nc-2s1 (configuration not stated) | 15 | 22 | 20 | 250 (≈ 827 µM) | 8 | 10 | 30 (≈ 99.2 µM) | 40 (≈ 132 µM) | 13 | 8 | 11 | 250 (≈ 827 µM) | 7 | 10 | inactive | 17 | 24 | 13 | 17 | 18 | growth inhibition (GI) (Staphylococcus aureus [7]): inactive; zone of inhibition at 750 µg/mL (Bacillus pumilus [20]): 18 mm; zone of inhibition at 750 µg/mL (Escherichia coli [21]): 15 mm; zone of inhibition at 1250 µg/mL (Escherichia coli [22]): 20 mm |
| O=C1CSC(c2ccccn2)N1c1nnc2c3ccccc3nc-2s1 (configuration not stated) | 15 | 19 | 18 | 150 (≈ 410 µM) | 11 | 10 | 30 (≈ 82.1 µM) | 250 (≈ 684 µM) | 13 | 7 | 14 | 200 (≈ 547 µM) | 8 | 8 | inactive | 15 | 22 | 10 | 17 | 18 | zone of inhibition at 250 µg/mL (Staphylococcus aureus [7]): 8 mm; zone of inhibition at 750 µg/mL (Bacillus pumilus [20]): 17 mm; zone of inhibition at 750 µg/mL (Escherichia coli [21]): 15 mm; zone of inhibition at 1250 µg/mL (Escherichia coli [22]): 22 mm |
| O=C1CSC(c2cccc3ccccc23)N1c1nnc2c3ccccc3nc-2s1 (configuration not stated) | 15 | 20 | 17 | 250 (≈ 603 µM) | 8 | 10 | 40 (≈ 96.5 µM) | 250 (≈ 603 µM) | 12 | 7 | 10 | 200 (≈ 482 µM) | 6 | 8 | inactive | 18 | 20 | 10 | 15 | 15 | zone of inhibition at 250 µg/mL (Staphylococcus aureus [7]): 8 mm; zone of inhibition at 750 µg/mL (Bacillus pumilus [20]): 15 mm; zone of inhibition at 750 µg/mL (Escherichia coli [21]): 13 mm; zone of inhibition at 1250 µg/mL (Escherichia coli [22]): 18 mm |
